Experiments:
[1] = tested on: LPS-induced TNFα release from human monocytes; test: LPS-stimulated TNFα release from human monocytes (ELISA); format: cell-based
Procedure: The influence of monocompounds and their various combinations, also in three-in-one on TNF secretion was investigated by using human monocytes. The study was approved by our institutional Ethics Committee according to the International Declarations of Helsinki and Tokyo.
Peripheral blood mononuclear cells (PBMCs) were isolated from heparinized blood samples of healthy donors by density gradient centrifugation. An equal volume of Hanks buffer (Invitrogen, Heidelberg, Germany) was added to heparinized whole blood samples. […] A visible band containing PBMCs was transferred to a fresh tube and washed twice with Hanks-buffer. […] 5% CO2 overnight. Monocytes were isolated from other cells by adherence method, non-adherent cells were removed by changing the medium.
Cells were re-suspended at 10^6 cells/ml and incubated in 500 μl volumes in 24-well tissue culture plates (Falcon Becton Dickinson Labware, Heidelberg, Germany) at 37° C., 5% CO2. After pre-incubation with test substances (0.5 μl/500 μl medium) for 30 min, cells were stimulated with lipopolysaccharide (LPS) (Sigma, Deisenhofen, Germany) (1 μg/ml). After 24 h of incubation, cells were sedimented by centrifugation. The supernatants were harvested and kept frozen at −80° C. until protein determination.
Cytokine measurements in culture supernatants were done by sandwich ELISA using matched antibody pairs (BD Pharmingen, Heidelberg, Germany). ELISA plates (Maxisorb, Nunc, Wiesbaden, Germany) were coated overnight with anti-cytokine monoclonal antibody (mAb) in 0.1M carbonate buffer, pH 9.5. After being washed, plates were blocked with Assay Diluent (BD Pharmingen, Heidelberg, Germany) for 1 h and washed again. Appropriately diluted supernatant samples and standards were distributed in duplicates and the plates were incubated for 2 h at room temperature. Plates were washed, incubated for 1 h with working detector (biotinylated anti-cytokine antibody and Avidin-horseradish peroxidase conjugate) (BD Pharmingen, Heidelberg, Germany). After washing, substrate (TMB and hydrogen peroxide) was added. The reaction was stopped by adding of 1M H3PO4. Plates were read at 450 nm (reference 570 nm) in a microplate reader (Dynatech, Alexandria, USA). The results were expressed as a percentage of the control level of cytokines production by cells stimulated in the absence of the compound.

[2] = tested on: allergen-induced airway eosinophilia; conditions: Brown Norway rats; administered directly into the lungs; cited from earlier work
[3] = dog, in vivo, 15 mg/kg; cited from earlier work
M3 muscarinic receptors = M3 muscarinic receptors (Homo sapiens, UniProt P20309); conditions: kinetics studies; cited from earlier work
M1-M3 receptors = conditions: cited from earlier work
allergic conjunctivitis = conditions: rats, administered topically into the eyes; cited from earlier work
[4] = tested on: collagen-induced arthritis; conditions: rats; cited from earlier work
[5] = mice; cited from earlier work
[6] = animal experiments; completely reversed by adding scopolamine; cited from earlier work

Chain of M3 muscarinic receptors (P20309 whole entry): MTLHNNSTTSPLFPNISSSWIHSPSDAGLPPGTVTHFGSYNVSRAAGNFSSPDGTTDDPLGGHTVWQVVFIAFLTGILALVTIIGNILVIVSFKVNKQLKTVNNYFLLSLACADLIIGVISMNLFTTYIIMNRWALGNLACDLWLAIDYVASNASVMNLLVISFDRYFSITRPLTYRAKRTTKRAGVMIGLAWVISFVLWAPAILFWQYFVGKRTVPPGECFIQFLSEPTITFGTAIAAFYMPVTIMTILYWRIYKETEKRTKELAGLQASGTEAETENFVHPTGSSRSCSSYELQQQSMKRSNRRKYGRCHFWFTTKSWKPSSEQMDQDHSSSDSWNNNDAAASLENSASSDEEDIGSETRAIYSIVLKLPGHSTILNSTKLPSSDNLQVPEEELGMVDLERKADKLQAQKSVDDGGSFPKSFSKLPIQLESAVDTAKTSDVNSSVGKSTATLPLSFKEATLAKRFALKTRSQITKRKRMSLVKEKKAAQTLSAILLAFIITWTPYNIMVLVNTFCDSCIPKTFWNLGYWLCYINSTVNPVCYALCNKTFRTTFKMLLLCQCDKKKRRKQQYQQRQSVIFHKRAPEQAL

**Q.** Which “influence of the single substance on LPS-induced TNFα release” value ([1]; human monocytes, LPS 1 μg/ml, 24 h, concentrations up to 10 μM) does the source give for C[N+]1(C)CC[C@@H](OC(=O)[C@](O)(c2ccccc2)C2CCCC2)C1.[Br-] [R,R-glycopyrrolate] here?
**A.** did not influence

**Q.** With O=C(Nc1c(Cl)cncc1Cl)C(=O)c1cn(Cc2ccc(F)cc2)c2ccc(O)cc12 [AWD 12-281] as the compound, how does the “ID50 for suppression of allergen-induced airway eosinophilia” value [2] read?
**A.** 7 µg/kg

**Q.** What about the emesis [3] of the same compound?
**A.** no emesis could be induced

**Q.** Which results are given for C[N+]1(C)CCC(OC(=O)C(O)(c2ccccc2)C2CCCC2)C1 (racemic) [glycopyrrolate, racemic glycopyrrolate]?
**A.** dissociation from M3 muscarinic receptors (M3 muscarinic receptors): dissociates slowly; selectivity in binding to the M1-M3 receptors (M1-M3 receptors): no selectivity

**Q.** Which “development of symptoms and mediator release” value (allergic conjunctivitis) does the source give for COc1cc(C(=O)NS(=O)(=O)c2ccccc2C)ccc1Cc1cn(C)c2ccc(NC(=O)OC3CCCC3)cc12 [Zafirlukast, zafirlukast] here?
**A.** effectively inhibit

**Q.** For CCCC1O[C@@H]2C[C@H]3[C@@H]4CCC5=CC(=O)C=C[C@]5(C)[C@H]4[C@@H](O)C[C@]3(C)[C@]2(C(=O)CO)O1 (stereo partly shown) [budesonide], which IC50 ([1]; Monocyte, human monocytes, LPS 1 μg/ml, 24 h, read-out: IC50 for inhibition of TNFα release) is on record?
**A.** 0.55 ± 0.13 nM

**Q.** For C[C@H]1C[C@H]2[C@@H]3CCC4=CC(=O)C=C[C@]4(C)[C@@]3(Cl)[C@@H](O)C[C@]2(C)[C@@]1(O)C(=O)CO [beclomethasone], which “ID50 for suppression of allergen-induced airway eosinophilia” value [2] is on record?
**A.** 0.1 µg/kg

**Q.** With COc1ccc(C2CNC(=O)C2)cc1OC1CCCC1 (stereo not shown) [rolipram] as the compound, how does the “clinical and histological severity of collagen-induced arthritis” value [4] read?
**A.** reduced the clinical and histological severity

**Q.** What about the “physiological bone formation and bone mass” value [5] of the same compound?
**A.** enhance physiological bone formation and thereby increase bone mass

**Q.** And the “IC35 for inhibition of TNFα release” value ([1]; IC35 determined instead of IC50 because maximum inhibition was around 70%)?
**A.** 68.9 ± 15.2 nM

**Q.** And the “maximum inhibition of TNFα release” value ([1]; human monocytes, LPS 1 μg/ml, 24 h)?
**A.** around 70%

**Q.** And the “sedative effects (hypoactivity, decreased locomotion)” value [6]?
**A.** induces sedative effects

Source: patent US8048910B2, “Combination of R,R-glycopyrrolate, rolipram, and budesonide for the treatment of inflammatory diseases” (Meda Pharma GmbH & Co. KG, priority 2005, dated 2011)
